This test has as its target 3-beta-hydroxysteroid-Delta(8),Delta(7)-isomerase (Homo sapiens, UniProt Q15125). The test is described as follows: Inhibition of EBP in HEK293T cells using zymosterol-d5 as substrate preincubated for 30 mins followed by substrate addition and measured after 4 hrs by LC-MS analysis. It counts as cell-based.

Consider six compounds from ChEMBL document CHEMBL5357062, “Emopamil-Binding Protein Inhibitors for Treating Multiple Sclerosis” (ACS Med Chem Lett, 2024).

For orientation: IC50 means the concentration needed to halve the response being measured. Lower therefore signals inhibition by little substance.

3-beta-hydroxysteroid-Delta(8),Delta(7)-isomerase, sequence (Q15125 whole entry): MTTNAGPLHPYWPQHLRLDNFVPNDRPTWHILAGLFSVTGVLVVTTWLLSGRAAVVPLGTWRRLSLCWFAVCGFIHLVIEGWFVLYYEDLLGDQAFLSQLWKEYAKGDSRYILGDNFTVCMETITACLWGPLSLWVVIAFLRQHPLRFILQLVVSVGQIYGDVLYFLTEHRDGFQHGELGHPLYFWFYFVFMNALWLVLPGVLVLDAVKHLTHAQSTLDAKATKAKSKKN

In turn, `O=S(=O)(c1ccc(C(F)(F)F)nc1C1CC1)N1CC2(CN(C3CCOCC3)C2)C1` returned a 50% inhibitory concentration (IC50) of under 100 nM.

As for `Cn1nc(C(F)(F)F)cc1S(=O)(=O)N1CC2(CN(CC3CC4(COC4)C3)C2)C1`, the IC50 was under 100 nM.

On to `CC(C)c1cc(S(=O)(=O)N2CC3(CN(C4CCOCC4)C3)C2)n(C)n1`, for which the concentration for half-maximal inhibition (IC50) is under 100 nM.

Regarding `Cn1nc(C(F)(F)F)cc1S(=O)(=O)N1CCC2(CCN(C3CCOCC3)C2)CC1`, the IC50 was under 100 nM.

Compound `O=S(=O)(c1cc(F)cc(F)c1)N1CCOC2(CCN(C3CCOCC3)C2)C1` (stereo unspecified) yielded a 50% inhibitory concentration (IC50) of under 100 nM.

In turn, `Cc1nc(C(F)(F)F)ccc1S(=O)(=O)N1CC2(CN(C(C)C3CCCO3)C2)C1` (stereo unspecified) yielded an IC50 of under 100 nM.
